Measured values published in paper PMC3154276, “The Effect of the Potential PhoQ Histidine Kinase Inhibitors on Shigella flexneri Virulence” (PLoS ONE, 2011).

Assays:
[1] = system: Salmonella enterica Typhimurium SL1344; test: Salmonella cell invasion assay (gentamicin protection, HeLa cells); type: cell-based; conditions: for cell invasion rate of Salmonella enterica Typhimurium SL1344: HeLa cells, untreated Salmonella 6×10^−2; for effect on cell invasion of Salmonella SL1344 (words, discussion): Figure 7, concentration not restated
Method: The effects of potential PhoQ inhibitors on cell invasion of Salmonella were determined by gentamicin protection assay.
Figure 7 The effects of potential PhoQ inhibitors on cell invasion of Salmonella. […] The bacteria pre-treated with potential PhoQ inhibitor were added to HeLa cells at a multiplicity of infection of 100. Then gentamicin was added to kill extracellular bacteria and cell lysates were plated onto LB plates, and the colonies were counted. The results of the assays were expressed as the number of bacteria recovered from gentamicin-treated cells divided by the number of inoculated bacteria added to the cell. Salmonella enterica typhimurium SL1344 served as the positive control for the cell invasion assay; E. coli ATCC 25922 (treated without DMSO), an avirulent strain, served as the negative control for the cell invasion assay; bacteria treated with 0.1% DMSO also served as a control for the cell invasion assay. Values are means ± standard deviations from 6 independent wells. *p<0.01 vs. SL1344.
The gentamicin protection assay was used as a cellular model to evaluate the inhibitory effect of the four potential PhoQ inhibitors. Salmonella enterica typhimurium SL1344 was treated with each of the four potential PhoQ inhibitors (final concentrations: potential PhoQ inhibitor 1 was 12.5 µmol/L, 2 was 25 µmol/L, 3 was 100 µmol/L and 4 was 100 µmol/L) and grown for 8 hours. The bacteria pre-treated with potential PhoQ inhibitor without washing, were added to HeLa cells at a multiplicity of infection of 100, at the same time the bacteria were diluted and plated onto LB agar plates. The CFUs were counted as initial bacterial number before added into HeLa cells. Next, the bacteria were inoculated to HeLa cells and incubated with for 60 minutes prior to the addition of gentamicin to kill extracellular bacteria. After the incubation, the HeLa cells in each well were lysed in 1 ml of PBS containing 0.1% Triton X-100 for 10 minutes at room temperature. The lysates were diluted and plated onto LB agar plates in triplicate. Colonies grown on LB plates were counted. The results of the assays were expressed as the number of bacteria recovered from gentamicin-treated cells divided by the number of inoculated bacteria added to the cell. After lysates of HeLa cells were plated, the number of CFU that formed on LB agar were counted. The cells were inoculated with untreated SL1344 (treated without DMSO) as a positive control and E. coli ATCC 25922, an avirulent strain treated without DMSO, as a negative control. SL1344 was treated with the same amount of 0.1% DMSO as the other groups to control for any DMSO-specific effects. The cell invasion assay was performed in triplicate for each potential PhoQ inhibitor, and the assay was repeated twice.

SF-PhoQc = target: T1, SF-PhoQc (Shigella flexneri, UniProt Q83RR1); test: Luminescent Kinase Assay of SF-PhoQc; type: biochemical, S. flexneri 2a 301
T1 construct: The amplified DNA segment encodes PhoQ HK amino acids 251–486; made in house; host or cells: E. coli JM109
T1 sequence (Q83RR1 251-486): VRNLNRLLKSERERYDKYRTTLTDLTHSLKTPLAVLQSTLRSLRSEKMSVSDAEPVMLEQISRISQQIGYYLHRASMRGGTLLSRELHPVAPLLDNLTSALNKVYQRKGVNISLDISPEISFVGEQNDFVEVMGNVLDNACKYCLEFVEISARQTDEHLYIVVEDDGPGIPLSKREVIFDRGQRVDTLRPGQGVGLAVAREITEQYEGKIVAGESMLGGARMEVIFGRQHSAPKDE
Method: Luminescent Kinase Assay was used to confirm the effects of compounds 1, 2, 3 and 4 on the enzymatic activity of SF-PhoQc. In the Luminescent Kinase Assay, the putative kinase activity of SF-PhoQc protein was measured by quantifying the amount of ATP that remained in solution after the reaction. […] Next, the effect of each compound on the enzymatic activity of SF-PhoQc was measured.
In the Luminescent Kinase assay, reactions were performed in solid black, flat-bottomed 96-well plates. To determine the IC50 of potential PhoQ HK inhibitors, each compound underwent 2-fold serial dilutions with DMSO (0.1%) and was added into the reaction mixture. The final reaction mixture contained 4 µg of purified SF-PhoQc, 40 mmol/L Tris-Cl (pH 7.5), 16 mmol/L MgCl2, 0.8 mmol/L DTT and different concentration of 100, 50, 25, 12.5, 6.25 or 3.125 µmol/L compound, respectively. After incubation at 30°C for 25 minutes, 3 µmol/L ATP was added, and the reaction was incubated at 30°C for another 25 minutes. Next, an equal volume of Luminescent Kinase Reagent was added to each well, mixed and kept at room temperature for 10 minutes before recording the luminescence reading on a Fluoroskan Ascent FL machine (Thermo Scientific, USA). The rate of phosphorylation inhibition by a compound was calculated with the following formula: [drawing 2]
The IC50 value of each compound was determined using the Origin 7.0 software (OriginLab, Northampton, USA).

[2] = system: S. flexneri 2a 301 phoQ/phoP knock-out mutant (Sf301 ΔphoQ/phoP); test: Gentamicin protection assay, HeLa cell invasion by phoQ/phoP knock-out mutant; type: cell-based; conditions: HeLa cells; for cell invasion rate of Sf301 ΔphoQ/phoP: untreated mutant 0.069; for effect on cell invasion of Sf301 phoQ/phoP knock-out mutant: Figure 6C
Method: Bacterial ability to invade HeLa cells was tested with a gentamicin protection assay. HeLa cells were grown in six-well tissue culture plates to semi-confluent monolayers (DMEM, 10% FCS, 5% CO2). Sf9380 or Sf301 ΔphoQ/phoP was treated with potential PhoQ inhibitors for 8 hours in LB at 37°C (final concentrations of 100,50,25,12.5 or 6.25 µmol/L) prior to infection. The bacteria pre-treated with potential PhoQ inhibitor without washing, were added to semi-confluent HeLa cells at a multiplicity of infection of 100, at the same time the bacteria were diluted and plated onto LB agar plates. The CFUs were counted as initial bacterial number before added into HeLa cells. Then the plates were centrifuged at 900×g for 5 minutes. After incubating at 37°C for 60 minutes (For testing intracellular growth and spreading to adjacent cell, cells were further incubated for 290 min [9].), the cells were washed three times with PBS, and gentamicin was added to the medium to a final concentration of 10 µg/ml for 20 minutes at 37°C. After the incubation, the HeLa cells in each well were lysed in 1 ml of PBS containing 0.1% Triton X-100 for 10 minutes at room temperature. The lysates were diluted and plated onto LB agar plates in triplicate. Colonies grown on LB plates were counted. The results of the assays were expressed as the number of bacteria recovered from gentamicin-treated cells divided by the number of inoculated bacteria added to the cell. The cells were inoculated with untreated Sf9380 or Sf301 ΔphoQ/phoP (treated without DMSO) as a positive control and E. coli ATCC 25922, an avirulent strain treated without DMSO, as a negative control. DMSO is the solvent of the potential PhoQ inhibitor compounds; therefore, Sf9380 was also treated with the same amount of 0.1% DMSO as the other groups to control for any DMSO-specific effects. The cell invasion assay was performed in triplicate for each potential PhoQ inhibitor, and the assay was repeated twice.

Compound | times lower invasion than the control, SL1344 ([1]; 12.5 µmo/L) [times] | cell invasion rate of Salmonella enterica Typhimurium SL1344 ([1]; 12.5 µmo/L) | effect on cell invasion of Salmonella SL1344 (words, discussion) [1] | IC50 (SF-PhoQc) [µM] | cell invasion rate of Sf301 ΔphoQ/phoP ([2]; 12.5 µmo/L) | effect on cell invasion of Sf301 phoQ/phoP knock-out mutant [2] | times lower invasion than the control, SL1344 ([1]; 25 µmo/L) [times] | cell invasion rate of Salmonella enterica Typhimurium SL1344 ([1]; 25 µmo/L) | cell invasion rate of Sf301 ΔphoQ/phoP ([2]; 25 µmo/L) | times lower invasion than the control, SL1344 ([1]; 100 µmo/L) [times] | cell invasion rate of Salmonella enterica Typhimurium SL1344 ([1]; 100 µmo/L) | cell invasion rate of Sf301 ΔphoQ/phoP ([2]; 100 µmo/L) | effect on cell invasion of SL1344 ([1]; 100 µmo/L)
O=C(Nc1ccc(C2(c3cccc(NC(=O)c4cccc5ccccc45)c3)c3ccccc3C(=O)c3ccccc32)cc1)c1ccc2ccccc2c1 [Compound 1] | 6.74 | 0.89×10^−2 | inhibited | 69.37 ± 0.56 | 0.064 | no obvious effects |  |  |  |  |  |  | 
CCOc1ccccc1-c1cc(C(=O)N/N=C/c2ccc(OCc3ccccc3)c(OC)c2)c2ccccc2n1 [Compound 2] |  |  | inhibited | 48.9 ± 14.7 |  | no obvious effects | 3.84 | 1.564×10^−2 | 0.102 |  |  |  | 
O=C(O)c1ccc(Cl)c(-c2ccc(/C=N/NC(=O)c3ccc(Br)cc3)o2)c1 [Compound 3] |  |  | inhibited | 7.99 ± 5.61 |  | no obvious effects |  |  |  | 166 | 0.036×10^−2 | 0.083 | 
O=C(O)c1cc(-c2ccc(-c3ccccc3Cl)o2)nc2ccc3ccccc3c12 [Compound 4] |  |  | no obvious effect | 27.2 ± 15.4 |  |  |  |  |  |  | 5.7×10^−2 | 0.053 | no obvious effect
